# Measured values from patent US9738634B2, “Heterocyclic amide compound and herbicide” (SYNGENTA PARTICIPATIONS AG, priority 2013, dated 2017).
# How the values were obtained:
# Type in all cases: in vivo
# Conditions in all cases: treatment dosage 320 g/ha
# Italian ryegrass [1] = assay: Test Example 3: weedkilling efficacy through soil treatment; I: Italian ryegrass
# In short: (§1)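 Crop and weed responses were judged three weeks after a uniform surface spray of the water-diluted emulsion at the given g/ha rate. Seeds sat beneath about 1.5 cm of sterilized diluvial soil, and boxes stood in a greenhouse at 25 to 30° C.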
# chickweed [2] = assay: Test Example 3: weedkilling efficacy through soil treatment; N: chickweed
# In short: as §1
# directly sown rice [3] = assay: Test Example 4: foliar treatment, effect on crop; b: directly sown rice
# In short: (§2)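 Seeds are spot-sown into sterilized diluvial soil and covered with about 1.5 cm of soil. After 14 days' greenhouse growth at 25 to 30° C, plants are sprayed on stems and leaves with diluted emulsion at the stated g/ha rate, then scored at 3 weeks.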
# barnyard grass [4] = assay: Test Example 3: weedkilling efficacy through soil treatment; F: barnyard grass
# In short: as §1
# barnyard grass [5] = assay: Test Example 4: weedkilling efficacy by foliar treatment; F: barnyard grass
# Procedure: (§3) Testing of Weedkilling Efficacy by Foliar Treatment
# (§4) Sterilized diluvial soil was introduced into 21 cm long, 13 cm wide, 7 cm deep plastic boxes, and seeds of crabgrass, green foxtail, barnyard grass, wild oat, black-grass, Italian ryegrass, common wind-grass, Indian mallow, redroot pigweed, fig-leafed goosefoot, chickweed, catchweed, birds-eye speedwell, corn, soybean, rice, wheat, beet and rapeseed were each spot-sown, and covered with about 1.5 cm of soil, then the plants were grown in a greenhouse at 25 to 30° C.
# (§5) After they had grown for 14 days, emulsions of compounds of the present invention prepared according to compounding example 2 were diluted with water to give the specified dosages, and applied uniformly onto the stem and leaf parts with a small sprayer. 3 weeks after the pesticide treatment the effect on each type of plant was investigated on the basis of the assessment criteria of test example 1.
# (§6) A: barnyard grass, B: bulrush, C: oval-leafed pondweed, D: crabgrass, E: green foxtail, F: barnyard grass, G: wild oat, H: black-grass, I: Italian ryegrass, J: common wind-grass, K: Indian mallow, L: redroot pigweed, M: fig-leafed goosefoot, N: chickweed, O: catchweed, p: birds-eye speedwell, a: transplanted rice, b: directly sown rice, c: corn, d: soybean, e: wheat, f: beet, g: rapeseed
# (§7) Further, pesticide dosage (g/ha) indicates the concentration regulated such that treatment was with only the stated number of grams (g), when calculated per hectare (ha).
# barnyard grass [6] = assay: Test Example 2: weedkilling efficacy, growth period weed treatment in the submerged state; A: barnyard grass
# In short: (§8)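 Barnyard grass, bulrush and oval-leafed pondweed sown in alluvial soil under 4 cm flooding, greenhouse 25 to 30° C. At 1-2 leaf stage, water-diluted emulsion applied to the water surface at stated g/ha dosages; effects scored 3 weeks later.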
# corn [7] = assay: Test Example 3: soil treatment, effect on crop; c: corn
# In short: as §1
# Italian ryegrass [8] = assay: Test Example 4: weedkilling efficacy by foliar treatment; I: Italian ryegrass
# In short: as §2
# crabgrass [9] = assay: Test Example 4: weedkilling efficacy by foliar treatment; D: crabgrass
# In short: as §2
# common wind-grass [10] = assay: Test Example 4: weedkilling efficacy by foliar treatment; J: common wind-grass
# Procedure: as §3, §4, §5, §6, §7
# Indian mallow [11] = assay: Test Example 3: weedkilling efficacy through soil treatment; K: Indian mallow
# In short: as §1
# wheat [12] = assay: Test Example 4: foliar treatment, effect on crop; e: wheat
# In short: as §2
# beet = assay: Test Example 4: foliar treatment, effect on crop; f: beet
# In short: as §2
# bulrush [13] = assay: Test Example 2: weedkilling efficacy, growth period weed treatment in the submerged state; B: bulrush
# In short: as §8
# oval-leafed pondweed [14] = assay: Test Example 2: weedkilling efficacy, growth period weed treatment in the submerged state; C: oval-leafed pondweed
# In short: as §8
# crabgrass [15] = assay: Test Example 3: weedkilling efficacy through soil treatment; D: crabgrass
# In short: as §1
# fig-leafed goosefoot [16] = assay: Test Example 4: weedkilling efficacy by foliar treatment; M: fig-leafed goosefoot
# In short: as §2
# barnyard grass [17] = assay: Test Example 1: weedkilling efficacy, preemergent weed treatment in the submerged state; A: barnyard grass
# In short: (§9)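 Pots of alluvial soil flooded 4 cm deep, sown with barnyard grass, bulrush and oval-leafed pondweed and transplanted with 2.5-leaf rice. Emulsified compound applied to the water surface on sowing day at stated g/ha; greenhouse 25–30 °C, effects assessed 3 weeks after treatment.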
# common wind-grass [18] = assay: Test Example 3: weedkilling efficacy through soil treatment; J: common wind-grass
# In short: as §1
# oval-leafed pondweed [19] = assay: Test Example 1: weedkilling efficacy, preemergent weed treatment in the submerged state; C: oval-leafed pondweed
# In short: as §9
# Indian mallow [20] = assay: Test Example 4: weedkilling efficacy by foliar treatment; K: Indian mallow
# In short: as §2
# bulrush [21] = assay: Test Example 1: weedkilling efficacy, preemergent weed treatment in the submerged state; B: bulrush
# In short: as §9
# directly sown rice [22] = assay: Test Example 3: soil treatment, effect on crop; b: directly sown rice
# In short: as §1
# rapeseed [23] = assay: Test Example 4: foliar treatment, effect on crop; g: rapeseed
# Procedure: as §3, §4, §5, §6, §7
# corn [24] = assay: Test Example 4: foliar treatment, effect on crop; c: corn
# In short: as §2
# black-grass [25] = assay: Test Example 4: weedkilling efficacy by foliar treatment; H: black-grass
# In short: as §2
# soybean [26] = assay: Test Example 3: soil treatment, effect on crop; d: soybean
# In short: as §1
# wheat [27] = assay: Test Example 3: soil treatment, effect on crop; e: wheat
# In short: as §1
# redroot pigweed [28] = assay: Test Example 3: weedkilling efficacy through soil treatment; L: redroot pigweed
# In short: as §1
# green foxtail [29] = assay: Test Example 4: weedkilling efficacy by foliar treatment; E: green foxtail
# In short: as §2
# transplanted rice = assay: Test Example 1: preemergent weed treatment in the submerged state, effect on crop; a: transplanted rice
# In short: as §9
# green foxtail [30] = assay: Test Example 3: weedkilling efficacy through soil treatment; E: green foxtail
# In short: as §1
# rapeseed [31] = assay: Test Example 3: soil treatment, effect on crop; g: rapeseed
# In short: as §1
# black-grass [32] = assay: Test Example 3: weedkilling efficacy through soil treatment; H: black-grass
# In short: as §1
# wild oat [33] = assay: Test Example 4: weedkilling efficacy by foliar treatment; G: wild oat
# In short: as §2
# redroot pigweed [34] = assay: Test Example 4: weedkilling efficacy by foliar treatment; L: redroot pigweed
# In short: as §2
# soybean [35] = assay: Test Example 4: foliar treatment, effect on crop; d: soybean
# In short: as §2
# wild oat [36] = assay: Test Example 3: weedkilling efficacy through soil treatment; G: wild oat
# In short: as §1
# fig-leafed goosefoot [37] = assay: Test Example 3: weedkilling efficacy through soil treatment; M: fig-leafed goosefoot
# In short: as §1
# chickweed [38] = assay: Test Example 4: weedkilling efficacy by foliar treatment; N: chickweed
# In short: as §2
# catchweed = assay: Test Example 4: weedkilling efficacy by foliar treatment; O: catchweed
# In short: as §2
structure (smiles),measurement,setting,value
CC1=C(c2cccnc2F)C(=O)N(C(C)(C)C(=O)Nc2cc(C(F)(F)F)cc(Cl)n2)CO1 [B-2-16],I (Italian ryegrass) weedkilling efficacy grade,Italian ryegrass [1],"5 (weed kill ratio 90% or more, (practically complete withering))"
same,N (chickweed) weedkilling efficacy grade,chickweed [2],"4 (weed kill ratio 70% or more, less than 90%)"
same,b (directly sown rice) effect on crop grade,directly sown rice [3],"5 (weed kill ratio 90% or more, (practically complete withering))"
same,F (barnyard grass) weedkilling efficacy grade,barnyard grass [4],"5 (weed kill ratio 90% or more, (practically complete withering))"
same,F (barnyard grass) weedkilling efficacy grade,barnyard grass [5],"5 (weed kill ratio 90% or more, (practically complete withering))"
same,A (barnyard grass) weedkilling efficacy grade,barnyard grass [6],"5 (weed kill ratio 90% or more, (practically complete withering))"
same,c (corn) effect on crop grade,corn [7],"1 (weed kill ratio 5% or more, less than 20%)"
same,I (Italian ryegrass) weedkilling efficacy grade,Italian ryegrass [8],"5 (weed kill ratio 90% or more, (practically complete withering))"
same,D (crabgrass) weedkilling efficacy grade,crabgrass [9],"5 (weed kill ratio 90% or more, (practically complete withering))"
same,J (common wind-grass) weedkilling efficacy grade,common wind-grass [10],"5 (weed kill ratio 90% or more, (practically complete withering))"
same,K (Indian mallow) weedkilling efficacy grade,Indian mallow [11],"2 (weed kill ratio 20% or more, less than 40%)"
same,e (wheat) effect on crop grade,wheat [12],"3 (weed kill ratio 40% or more, less than 70%)"
same,f (beet) effect on crop grade,beet,"4 (weed kill ratio 70% or more, less than 90%)"
same,B (bulrush) weedkilling efficacy grade,bulrush [13],"5 (weed kill ratio 90% or more, (practically complete withering))"
same,C (oval-leafed pondweed) weedkilling efficacy grade,oval-leafed pondweed [14],"5 (weed kill ratio 90% or more, (practically complete withering))"
same,D (crabgrass) weedkilling efficacy grade,crabgrass [15],"5 (weed kill ratio 90% or more, (practically complete withering))"
same,M (fig-leafed goosefoot) weedkilling efficacy grade,fig-leafed goosefoot [16],"5 (weed kill ratio 90% or more, (practically complete withering))"
same,A (barnyard grass) weedkilling efficacy grade,barnyard grass [17],"5 (weed kill ratio 90% or more, (practically complete withering))"
same,J (common wind-grass) weedkilling efficacy grade,common wind-grass [18],"5 (weed kill ratio 90% or more, (practically complete withering))"
same,C (oval-leafed pondweed) weedkilling efficacy grade,oval-leafed pondweed [19],"5 (weed kill ratio 90% or more, (practically complete withering))"
same,K (Indian mallow) weedkilling efficacy grade,Indian mallow [20],"5 (weed kill ratio 90% or more, (practically complete withering))"
same,B (bulrush) weedkilling efficacy grade,bulrush [21],"5 (weed kill ratio 90% or more, (practically complete withering))"
same,b (directly sown rice) effect on crop grade,directly sown rice [22],"5 (weed kill ratio 90% or more, (practically complete withering))"
same,g (rapeseed) effect on crop grade,rapeseed [23],"4 (weed kill ratio 70% or more, less than 90%)"
same,c (corn) effect on crop grade,corn [24],"4 (weed kill ratio 70% or more, less than 90%)"
same,H (black-grass) weedkilling efficacy grade,black-grass [25],"5 (weed kill ratio 90% or more, (practically complete withering))"
same,d (soybean) effect on crop grade,soybean [26],"1 (weed kill ratio 5% or more, less than 20%)"
same,e (wheat) effect on crop grade,wheat [27],"1 (weed kill ratio 5% or more, less than 20%)"
same,L (redroot pigweed) weedkilling efficacy grade,redroot pigweed [28],0 (weed kill ratio 5% or less (practically no effect))
same,E (green foxtail) weedkilling efficacy grade,green foxtail [29],"5 (weed kill ratio 90% or more, (practically complete withering))"
same,a (transplanted rice) effect on crop grade,transplanted rice,"4 (weed kill ratio 70% or more, less than 90%)"
same,E (green foxtail) weedkilling efficacy grade,green foxtail [30],"5 (weed kill ratio 90% or more, (practically complete withering))"
same,g (rapeseed) effect on crop grade,rapeseed [31],"3 (weed kill ratio 40% or more, less than 70%)"
same,H (black-grass) weedkilling efficacy grade,black-grass [32],"5 (weed kill ratio 90% or more, (practically complete withering))"
same,G (wild oat) weedkilling efficacy grade,wild oat [33],"5 (weed kill ratio 90% or more, (practically complete withering))"
same,L (redroot pigweed) weedkilling efficacy grade,redroot pigweed [34],"4 (weed kill ratio 70% or more, less than 90%)"
same,d (soybean) effect on crop grade,soybean [35],"4 (weed kill ratio 70% or more, less than 90%)"
same,G (wild oat) weedkilling efficacy grade,wild oat [36],"5 (weed kill ratio 90% or more, (practically complete withering))"
same,M (fig-leafed goosefoot) weedkilling efficacy grade,fig-leafed goosefoot [37],"4 (weed kill ratio 70% or more, less than 90%)"
same,N (chickweed) weedkilling efficacy grade,chickweed [38],"4 (weed kill ratio 70% or more, less than 90%)"
same,O (catchweed) weedkilling efficacy grade,catchweed,"4 (weed kill ratio 70% or more, less than 90%)"
